Experimental data published in US10882869B2, “Condensed heterocyclic compounds and pesticides” (NISSAN CHEMICAL CORPORATION, priority 2015, dated 2021).

Key:
Assay type in all cases: in vivo
[1] = tested on: Plutella xylostella; assay: Insecticidal test on Plutella xylostella (cabbage leaves soaked); settings: 144 h, 500 ppm solution, 3rd-instar larvae, 6 days after, 25° C.
Procedure: (§1) Leaves of cabbage were soaked in the solutions for about 10 seconds. After the soaking, the leaves were dried in air and placed in dishes. In each dish, five 3rd-instar larvae of Plutella xylostella were released, and the dishes were covered with lids and placed in an incubator at 25° C. 6 Days after, dead insects in the dishes were counted, and the mortality was calculated by using the same equation as in Test Example 1. The test was carried out in duplicate.

[2] = tested on: Spodoptera litura; assay: Insecticidal test on Spodoptera litura (cabbage leaves soaked); settings: 144 h, 500 ppm solution, 3rd-instar larvae, 6 days after, 25° C.
Procedure: as §1, with “Spodoptera litura” for “Plutella xylostella”

[3] = tested on: Ctenocephalides felis; assay: Test on the effect on Ctenocephalides felis (thin film in glass container); settings: 96 h, application dose 10 μg/cm^2, adults, 4 days after release, 25° C.
Procedure: 350 μl of the solutions were applied to the bottoms and the side walls of glass containers with an inner wall surface area of 35 cm^2, and acetone was volatilized to prepare thin films of the compounds on the inner walls of the glass containers. Since the inner wall surface area of each glass container was 35 cm^2, the application dose was 10 μg/cm^2.
To each glass container, five adults (male and female) of Ctenocephalides felis were released, and the containers were covered with lids and placed in an incubator at 25° C. 4 Days after the release of the fleas, dead fleas were counted, and the mortality was calculated by using the same equation as in Test Example 1.

[4] = tested on: Myzus persicae; assay: Insecticidal test on Myzus persicae (cabbage leaf spray); settings: 144 h, 500 ppm solution sprayed (2.5 mg/cm^2), apterous adults on cabbage leaves, 6 days after, 25° C.
Procedure: Wet absorbent cotton was laid on glass dishes having an inner diameter of 3 cm, and covered with leaves of cabbage cut into circles of the same diameter, and 4 apterous adults of Myzus persicae were released. […] The solutions were sprayed from a rotary spray tower (2.5 mg/cm^2), and the dishes were covered with lids and placed in an incubator at 25° C. 6 Days after, dead insects were counted, and the mortality was calculated by using the same equation as in Test Example 1. The test was carried out in duplicate.

[5] = tested on: Nilaparvata lugens; assay: Insecticidal test on Nilaparvata lugens (rice sheaths soaked); settings: 144 h, 500 ppm solution, 3rd-instar larvae, 6 days after, 25° C.
Procedure: Rice sheaths were soaked in the solutions for about 10 seconds. After the soaking, the rice sheaths were dried in air and put in test tubes. In each tube, five 3rd-instar larvae of Nilaparvata lugens were released, and the tubes were capped with sponge and placed in an incubator at 25° C. 6 Days after, dead insects in the test tubes were counted, and the mortality (%) (the number of dead insects÷the number of released insects×100) was calculated. The test was carried out in duplicate.

Row | SMILES | mortality at 500 ppm [1] [%] | mortality at 500 ppm [2] [%] | mortality at 10 µg/cm2 [3] [%] | mortality at 500 ppm [4] [%] | mortality at 500 ppm [5] [%]
1 | CCS(=O)(=O)c1c(-c2cn3cnc(C(F)(F)C(F)(F)F)cc3n2)nc2ccc(C(F)(F)F)cn12 [1-3-008a, 2-[3-(ethylsulfonyl)-6-(trifluoromethyl)imidazo[1,2-a]pyridin-2-yl]-7-(perfluoroethyl)imidazo[1,2-c]pyrimidine] | ≥ 90 | ≥ 90 | ≥ 50 | – | –
2 | CCS(=O)(=O)c1c(-c2nc3cc(C(F)(F)F)cnc3s2)nc2cc(C(F)(F)F)ccn12 [1-13-001a, 2-[3-(ethylsulfonyl)-7-(trifluoromethyl)imidazo[1,2-a]pyridin-2-yl]-6-(trifluoromethyl)thiazolo[5,4-b]pyridine] | ≥ 90 | ≥ 90 | – | – | –
3 | CCSc1c(-c2nc3cc(C(F)(F)F)ncc3n2C)nc2cc(C(F)(F)F)ccn12 [1-8-005b, 2-[3-(ethylthio)-7-(trifluoromethyl)imidazo[1,2-a]pyridin-2-yl]-3-methyl-6-(trifluoromethyl)-3H-imidazo[4,5-c]pyridine] | – | ≥ 90 | – | – | –
4 | CCSc1c(-c2nc3cc(C(F)(F)F)cnc3n2C)nc2cc(C(F)(F)F)c(Br)cn12 [1-1-023b, 2-[6-bromo-3-(ethylthio)-7-(trifluoromethyl)imidazo[1,2-a]pyridin-2-yl]-3-methyl-6-(trifluoromethyl)-3H-imidazo[4,5-b]pyridine] | ≥ 90 | ≥ 90 | ≥ 50 | – | –
5 | CCSc1c(-c2nc3cnc(C(F)(F)F)cc3n2C)nc2cc(Cl)ccn12 [1-9-003b, 2-[7-chloro-3-(ethylthio)imidazo[1,2-a]pyridin-2-yl]-1-methyl-6-(trifluoromethyl)-1H-imidazo[4,5-c]pyridine] | ≥ 90 | – | ≥ 50 | – | –
6 | CCS(=O)(=O)c1c(-c2cn3cc(C(F)(F)F)sc3n2)nc2ccc(C(F)(F)F)cn12 [1-12-001a, 6-[3-(ethylsulfonyl)-6-(trifluoromethyl)imidazo[1,2-a]pyridin-2-yl]-2-(trifluoromethyl)imidazo[2,1-b]thiazole] | ≥ 90 | ≥ 90 | ≥ 50 | ≥ 90 | –
7 | CCS(=O)(=O)c1c(-c2nc3cc(C(F)(F)F)cnc3n2C)nc2cc(C(F)(F)F)c(Br)cn12 [1-1-023a, 2-[6-bromo-3-(ethylsulfonyl)-7-(trifluoromethyl)imidazo[1,2-a]pyridin-2-yl]-3-methyl-6-(trifluoromethyl)-3H-imidazo[4,5-b]pyridine] | ≥ 90 | ≥ 90 | ≥ 50 | ≥ 90 | ≥ 90
8 | CCSc1c(-c2nc3cc(C(F)(F)F)cnc3n2C)nc2sc(C(F)(F)F)cn12 [2-1-001b, 5-(ethylthio)-6-[3-methyl-6-(trifluoromethyl)-3H-imidazo[4,5-b]pyridin-2-yl]-2-(trifluoromethyl)imidazo[2,1-b]thiazole] | ≥ 90 | ≥ 90 | – | – | –
9 | CCS(=O)(=O)c1c(-c2nc3cc(C(F)(F)F)cnc3n2C)nc2ncc(C(F)(F)F)cn12 [1-1-054a, 2-[3-(ethylsulfonyl)-6-(trifluoromethyl)imidazo[1,2-a]pyrimidin-2-yl]-3-methyl-6-(trifluoromethyl)-3H-imidazo[4,5-b]pyridine] | ≥ 90 | – | – | – | –
10 | CCS(=O)(=O)c1c(-c2cn3ccc(C(F)(F)F)cc3n2)nc2ccc(C(F)(F)F)cn12 [1-5-002a, 3-(ethylsulfonyl)-6,7′-bis(trifluoromethyl)-2,2′-biimidazo[1,2-a]pyridine] | ≥ 90 | ≥ 90 | ≥ 50 | ≥ 90 | ≥ 90
